Measurements as given in paper PMC6697720, “Saturation of acyl chains converts cardiolipin from an antagonist to an activator of Toll-like receptor-4” (Cellular and Molecular Life Sciences: CMLS, 2019).
pIC50: −log10 of the molar value.

Assays:
[1] = test system: immortalized BMDMs; experiment: TNF-α secretion in immortalized BMDMs (WT or TLR4-KO) incubated with CL or LPS; type: cell-based, murine; settings: CL alone, overnight, immortalized BMDM
Protocol: Immortalized BMDM were seeded the day before the experiment at 5 × 10^5 cells/mL in 48-well plates (500 μL/well).
After stimulation, supernatants were collected, centrifuged, and assayed for cytokine secretion, while cells were assayed for viability.
TNF-α and IP-10 were quantified in cell supernatants using DuoSet ELISA kits from R&D Systems and human IL-1β using Instant ELISA™ Kit from Invitrogen, according to the manufacturer’s instructions. Absorbance was read with a BioTek Synergy HT Microplate Readers.
(§1) Fig. 3 Saturated but not unsaturated CLs have pro-inflammatory properties. a RAW-Blue™ cells were incubated overnight with the indicated amount of CL or LPS, supernatants were collected, and NF-κB activation quantified via Quanti-Blue™ test and reported here as fold induction as compared to control. Unpaired t test: differences with respect to the control (Ctrl) are not significant if p > 0.05 (no symbol); *p ≤ 0.0007. b Immortalized BMDM cells were incubated overnight with the indicated amount of CL or LPS; supernatants were collected and TNF-α quantified via ELISA assay. c, d Primary human monocytes were incubated overnight with the indicated amount of CL or LPS with or without the NLRP3 inhibitor MCC950, supernatants were collected, and TNF-α and IL-1β were quantified via ELISA assay. Graphs are representative of experiments from six different donors. Unpaired t test: differences with respect to the control (Ctrl) are not significant if p > 0.05 (no symbol); *p ≤ 0.021. Each bar represents the mean + standard deviation of three biological replicates (n = 3). Graphs are representative of at least three independent experiments
(§2) Fig. 4 Saturated CLs are TLR4 agonists. a HEK293 cells were transfected with plasmids encoding murine TLR4, MD2, and CD14 (mTLR4), human TLR4, MD2, and CD14 (hTLR4) or with empty pcDNA3.1 plasmid, MD2 and CD14 (w/o TLR) together with a luciferase reporter plasmid dependent on NF-κB activation and a constitutively active reporter vector-encoding renilla luciferase. Two days after transfection, cells were incubated for 6 h with medium alone (Ctrl) or the indicated amount of CLs or LPS. Luciferase and renilla were quantified in cell lysate, normalized and reported here as fold induction as compared to control. Unpaired t test: differences compared to the control are not significant if p > 0.05(no symbol); *p ≤ 0.005. b WT and TLR4-KO iBMDM cells were incubated overnight with medium (c), LPS or C14:0 CL. For each condition, mTNF-α was measured by ELISA assay. Unpaired t test: differences with respect to the control are not significant if p > 0.05(no symbol); *p ≤ 0.0001. Each bar represents the mean + standard deviation of three biological replicates (n = 3). Graphs are representative of at least three independent experiments

[2] = test system: RAW-Blue cells; experiment: NF-κB activation (SEAP, Quanti-Blue) by CL or LPS in RAW-Blue cells; type: cell-based, murine; settings: CL alone, overnight
Protocol: RAW-Blue™ cells were seeded the day before the experiment at 5 × 10^5 cells/mL in 48-well plates (500 μL/well).
These cells express a secreted embryonic alkaline phosphatase (SEAP) when NF-κB is activated. NF-κB activation was measured by measuring the alkaline phosphatase produced by RAW-Blue™ cells using the Quanti-Blue™ reagent (InvivoGen), according to the manufacturer’s instructions.
as §1

[3] = target: T1, human TLR4/MD2/CD14 (Homo sapiens, UniProt O00206+Q9Y6Y9); experiment: Inhibition of LPS-induced NF-κB luciferase reporter in HEK293 cells transfected with human TLR4/MD2/CD14; type: cell-based; settings: for inhibition of LPS-induced signaling (LPS dose-response, 0 to 1000 ng/mL), mode of action: 1 h CL pre-incubation
T1 construct: expressed in transfected cells; host or cells: HEK293 (ATCC CRL1573), transient transfection with jetPEI
Protocol: (§3) Cells were seeded at 4 × 10^4 cells/mL in 96-well plates (200 μL/well) and transiently transfected 4 days later. Expression vectors containing an NF-κB transcription reporter vector-encoding firefly luciferase (10 ng/well pNF-κB-luc from Clontech), and a constitutively active reporter vector-encoding Renilla luciferase (5 ng/well phRG-TK; Promega), together with empty vector (pcDNA3.1 from Invitrogen Cat. N. V79020) and cDNA encoding human membrane CD14 (3 ng/well) and human or murine TLR4 and MD2 (3 ng/well) were mixed with jetPEI (Polyplus transfection Cat.N. 101-10N) and incubated with cells according to the manufacturer’s instructions.
(§4) After treatment supernatants were discarded, cells were washed with PBS and lysed with passive lysis buffer (Promega Cat.N. E1941). Luciferase and Renilla activity on cell lysates were quantified on a BioTek Synergy HT microplate reader using home-made luciferase reagent (20 mM Tricine, 2.67 mM MgSO4·7H2O, 0.265 mM (MgCO3)4Mg(OH)2·5H2O, 0.1 mM EDTA, 33.3 mM DTT, 530 μM ATP, 270 μM Acetyl Coenzyme A (Lithium salt), 470 μM luciferin (Biosynth), pH 7.8, diluted two times in water before use), or coelenterazine (Biosynth) dissolved in ethanol at 1 mg/mL and diluted 500 times in PBS before use as previously described. Firefly and Renilla luciferase activity on cell lysates were normalized, and data were expressed as fold induction as compared to unstimulated conditions.
In contrast to C16:0 and C18:0, C14:0 CL acted as an agonist in murine but not human cells (Fig. 3), a property similar to that of the LPS variant lipid IVa. to establish whether C14:0, like lipid IVa, is a weak human TLR4 antagonist, we tested the ability of all saturated CLs to inhibit signaling induced by LPS over a range of concentrations. For each CL, cells transfected with human TLR4/MD2/CD14 were pre-incubated with medium alone or two different CL concentrations for 1 h, and then washed and incubated for 6 h with increasing amounts of LPS (from 0 to 1000 ng/mL). […] The dose–response curve of LPS was shifted to the right.
(§5) Fig. 6 C14:0 is a competitive human TLR4 antagonist. HEK293 cells were transfected with plasmids encoding hTLR4, hMD2, and hCD14 together with a luciferase reporter plasmid dependent on NF-κB activation and a constitutively active reporter vector-encoding renilla luciferase. Two days after transfection, cells were incubated for 1 h with medium alone or the indicated amount of CLs, then washed and incubated 6 h with increasing amount of LPS. Luciferase and renilla were then quantified in cell lysate, and normalized and reported here as fold induction as compared to control. Each bar represents the mean ± standard deviation of three biological replicates (n = 3). Graphs are representative of at least three independent experiments
as §5, with “7 Unsaturated cardiolipins are” for “6 C14:0 is a”, “antagonists.” for “antagonist.”, “CLs, and” for “CLs,”
To quantify and compare the potency of CLs as inhibitors, we determined IC50 values in HEK293 cells transfected with human TLR4/MD2/CD14, for each of the antagonists (Fig. 8 and Table 1). […]

[4] = target: T2, human TLR4, MD2, and CD14 (Homo sapiens, UniProt O00206+Q9Y6Y9); experiment: NF-κB luciferase reporter activation by CLs in HEK293 cells transfected with human TLR4, MD2 and CD14; type: cell-based
T2 construct: expressed in transfected cells; host or cells: HEK293 (ATCC CRL1573), transient transfection with jetPEI
Protocol: as §3, §4
The first signaling event of these pathways is NF-κB activation through TLR4 activation. To investigate how the individual CD14, TLR4, and MD2 proteins contribute to the responses of cells to CL, we used the HEK transfection model where we can control which protein (including from different species) may be added to the cells and their contribution to CL activation of Nf-κB [21, 30, 31]. We transfected HEK293 cells with human or murine CD14 and MD2 with or without TLR4 and incubated them with saturated CLs for 6 h (Fig. 4a). All three saturated CLs activated murine TLR4. By contrast, only C16:0 and C18:0 activated the human receptor. To further confirm the role of TLR4, we compared TNF-α secretion induced by C14:0 CL in wild-type (WT) or TLR4 knock out (TLR4 KO) immortalized BMDMs. Both LPS and C14:0 CL induced TNF-α secretion in WT but not in TLR4-KO BMDMs (Fig. 4b). TLR4-KO BMDMs were normally responsive to TLR2 ligand Pam3CSK4 (data not shown).
as §2, with “Graphs are representative of at least three independent experiments” left out

[5] = HEK293 hTLR4/hMD2/hCD14, 1 h CL, washed, 6 h LPS, Prism fit of Fig. 8 data

T1 sequence (O00206 24-839): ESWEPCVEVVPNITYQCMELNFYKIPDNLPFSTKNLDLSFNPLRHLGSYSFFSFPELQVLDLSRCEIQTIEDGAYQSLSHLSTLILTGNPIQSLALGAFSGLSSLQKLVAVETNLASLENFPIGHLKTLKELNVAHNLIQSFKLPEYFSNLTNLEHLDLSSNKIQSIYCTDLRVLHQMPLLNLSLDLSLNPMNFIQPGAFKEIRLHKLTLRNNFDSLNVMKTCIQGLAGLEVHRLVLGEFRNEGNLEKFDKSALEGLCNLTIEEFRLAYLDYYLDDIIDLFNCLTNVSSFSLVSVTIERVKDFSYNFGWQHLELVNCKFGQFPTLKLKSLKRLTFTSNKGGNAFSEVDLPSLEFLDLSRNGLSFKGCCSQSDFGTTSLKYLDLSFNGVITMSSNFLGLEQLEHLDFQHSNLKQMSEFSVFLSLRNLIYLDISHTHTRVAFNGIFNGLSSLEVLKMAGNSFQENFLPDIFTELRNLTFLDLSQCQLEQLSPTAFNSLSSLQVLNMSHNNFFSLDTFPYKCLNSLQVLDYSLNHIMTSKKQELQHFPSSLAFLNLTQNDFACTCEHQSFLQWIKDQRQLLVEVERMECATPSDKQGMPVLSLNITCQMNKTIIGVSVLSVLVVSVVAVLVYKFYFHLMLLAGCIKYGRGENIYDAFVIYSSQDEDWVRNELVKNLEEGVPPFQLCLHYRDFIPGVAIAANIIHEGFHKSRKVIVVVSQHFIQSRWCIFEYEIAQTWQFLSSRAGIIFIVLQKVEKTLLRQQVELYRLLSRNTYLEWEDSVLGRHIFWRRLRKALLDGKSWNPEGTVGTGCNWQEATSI
T1 sequence (Q9Y6Y9 19-160): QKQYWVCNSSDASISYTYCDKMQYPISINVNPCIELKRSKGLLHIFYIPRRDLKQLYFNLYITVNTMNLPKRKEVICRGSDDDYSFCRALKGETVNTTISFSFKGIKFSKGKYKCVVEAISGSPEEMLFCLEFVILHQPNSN
T2 sequence (O00206 24-839): as the sequence (O00206 24-839) above
T2 sequence (Q9Y6Y9 19-160): as the sequence (Q9Y6Y9 19-160) above

inhibition of LPS-induced signaling (LPS dose-response, 0 to 1000 ng/mL), mode of action ([3]; washed, 6 h LPS) | pIC50 [3, 5] | activation of human TLR4 (NF-κB) ([4]; 6 h incubation) | NF-κB induction in HEK293 cells transfected with TLR4 in the absence of CD14 or MD2 ([4]; hTLR4 without CD14 or without MD2, 6 h) | pIC50 ([3]; HEK293 human TLR4/MD2/CD14) | difference in potency between C14:1 and C18:1 ([3]; ratio of IC50 values, Table 1) | Compound | TNF-α secretion [1] | NF-κB activation [2]
competitive TLR4 antagonists | 6.03 | – | – | – | – | CCCCCC/C=C\CCCCCCCC(=O)OC[C@H](COP(=O)(O)OCC(O)COP(=O)(O)OC[C@@H](COC(=O)CCCCCCC/C=C\CCCCCC)OC(=O)CCCCCCC/C=C\CCCCCC)OC(=O)CCCCCCC/C=C\CCCCCC (stereo partly shown) [C16:1 CL] | not | not
did not inhibit | – | activated | not induced | – | – | CCCCCCCCCCCCCCCC(=O)OC[C@H](COP(=O)(O)OCC(O)COP(=O)(O)OC[C@@H](COC(=O)CCCCCCCCCCCCCCC)OC(=O)CCCCCCCCCCCCCCC)OC(=O)CCCCCCCCCCCCCCC (stereo partly shown) [C16:0 CL] | induced | induced
competitive TLR4 antagonists | 7.11 | – | – | 7.11 | 400 fold | CCCC/C=C\CCCCCCCC(=O)OC[C@H](COP(=O)(O)OCC(O)COP(=O)(O)OC[C@@H](COC(=O)CCCCCCC/C=C\CCCC)OC(=O)CCCCCCC/C=C\CCCC)OC(=O)CCCCCCC/C=C\CCCC (stereo partly shown) [C14:1 CL] | not | not
competitive TLR4 antagonists | 4.47 | – | – | – | – | CCCCCCCC/C=C\CCCCCCCC(=O)OC[C@H](COP(=O)(O)OCC(O)COP(=O)(O)OC[C@@H](COC(=O)CCCCCCC/C=C\CCCCCCCC)OC(=O)CCCCCCC/C=C\CCCCCCCC)OC(=O)CCCCCCC/C=C\CCCCCCCC (stereo partly shown) [C18:1 CL] | not | not
